These results are taken from ChEMBL document CHEMBL1201862, “PubChem BioAssay data set” (2004).

A short description of one series: cells. It counts as functional.
Series [1] is described as follows: Trypanosoma cruzi growth suppression in host cells – NIH3T3 host cells, beta-gal luminescence, confirmation (AID 2044).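 Note: intracellular parasites grown in NIH/3T3 mouse fibroblasts as host cells; luminescent beta-galactosidase reporter signal from transgenic T. cruzi replicating inside host cells; inhibitors lower the luminescence signal.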 The format is functional, cell-based.
Series [2] is described as follows: viability of HCT116 lacking mutant beta-catenin – cell-based, human colon tumor, dose response (AID 1045).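 Note: HCT116 colon tumor cells with beta catenin knocked out; cells exposed to compound for 60 hours.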 The format is functional.
Series [3] is described as follows: Luminescence Cell-Based Dose Retest to Confirm Inhibitors of Cancer Stem Cells. [Related pubchem assays (depositor defined):AID2717, AID2721]. Particulars: Homo sapiens. The format is functional.
The test system of another series is INS1. In words: INS-1E survival protection against cytokine death – cell-based, luminescence, retest, dose response (AID 449756).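 Note: cell death triggered by IL-1 beta plus TNF-alpha plus IFN-gamma mixture; protective hits raise ATP signal compared with cytokine alone wells.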 Particulars: Rattus norvegicus, INS1. The format is functional.
Series [4] is described as follows: Vero E6 cell cytotoxicity, dose response, cytotoxicity control for non-replicating M. tuberculosis project, secondary assay (AID 492998). The format is functional, VeroE6. Particulars: Vero C1008.
Series [5] is described as follows: viability of PTEN-deleted HCT116 cells – cell-based, HCT116 PTEN knockout, dose response (AID 1047).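 Note: HCT116 colon tumor cells with PTEN knocked out; cells exposed to compound for 60 hours before readout; potency for loss of cell viability measured by luminescence.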 It counts as functional.
Series [6] in a line: NIH3T3 cell viability loss – ATP luminescence, mouse fibroblasts, counter-screen, dose response (AID 2010).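 Note: cells exposed to compound for about 90 hours before reading.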 It counts as functional, cell-based. For orientation: The purpose of a counterscreen is to sort out artefacts and off-target activity.
Series [7] is described as follows: THP-1 cell cytotoxicity, dose response, cytotoxicity control for non-replicating M. tuberculosis project (AID 489025). The format is functional.
Series [8] addresses T1, Microphthalmia-associated transcription factor (Homo sapiens, UniProt O75030).
T1 sequence (O75030 whole entry): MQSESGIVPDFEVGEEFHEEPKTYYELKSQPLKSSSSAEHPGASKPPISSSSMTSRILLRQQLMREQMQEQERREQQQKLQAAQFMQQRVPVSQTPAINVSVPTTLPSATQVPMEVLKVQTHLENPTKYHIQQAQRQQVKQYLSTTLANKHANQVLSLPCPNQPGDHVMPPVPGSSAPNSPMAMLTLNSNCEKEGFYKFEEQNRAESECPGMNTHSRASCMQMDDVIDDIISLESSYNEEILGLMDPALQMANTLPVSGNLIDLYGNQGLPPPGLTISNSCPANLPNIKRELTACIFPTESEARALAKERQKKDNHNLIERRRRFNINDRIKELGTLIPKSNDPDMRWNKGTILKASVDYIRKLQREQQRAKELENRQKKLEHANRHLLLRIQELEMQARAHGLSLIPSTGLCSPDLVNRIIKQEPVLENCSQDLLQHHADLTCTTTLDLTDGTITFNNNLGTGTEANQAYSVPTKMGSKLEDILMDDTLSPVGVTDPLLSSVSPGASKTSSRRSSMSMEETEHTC
As to the kind of experiment: reducers of TRPM1 reporter luminescence, concentration series – cell-based, SK-MEL-5, cherry-picked, set 3, MITF inhibitor project, dose response (AID 493073).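 Note: SK-MEL-5 melanoma cells with luciferase driven by the MITF target TRPM1 promoter.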 The format is functional.

Series [9] relates to A-375. As to the kind of experiment: MITF: Counter assay: A375 proliferation Measured in Cell-Based System Using Plate Reader - 2084-03_Inhibitor_Dose_DryPowder_Activity. [Related pubchem assays (depositor defined):AID488944]. It counts as functional. To be noted: Homo sapiens.
The nature of series [10]: HepG2 cell cytotoxicity, dose response, cytotoxicity control for non-replicating M. tuberculosis project (AID 489018). Particulars: Mycobacterium tuberculosis. The format is functional.
The nature of series [11]: M. tuberculosis H37Rv growth inhibitors, H37Rv strain (AID 1626). It counts as functional.
The target in series [12] is Type-1 angiotensin II receptor (Homo sapiens, UniProt P30556). As to the kind of experiment: antagonism of angiotensin II type 1 receptor – cell-based, uHTS hits, selectivity assay for APJ receptor antagonist project, dose response (AID 463214).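 Note: antagonist potency against angiotensin II stimulated AT1 response.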 It counts as functional.
Sequence of Type-1 angiotensin II receptor (P30556 whole entry): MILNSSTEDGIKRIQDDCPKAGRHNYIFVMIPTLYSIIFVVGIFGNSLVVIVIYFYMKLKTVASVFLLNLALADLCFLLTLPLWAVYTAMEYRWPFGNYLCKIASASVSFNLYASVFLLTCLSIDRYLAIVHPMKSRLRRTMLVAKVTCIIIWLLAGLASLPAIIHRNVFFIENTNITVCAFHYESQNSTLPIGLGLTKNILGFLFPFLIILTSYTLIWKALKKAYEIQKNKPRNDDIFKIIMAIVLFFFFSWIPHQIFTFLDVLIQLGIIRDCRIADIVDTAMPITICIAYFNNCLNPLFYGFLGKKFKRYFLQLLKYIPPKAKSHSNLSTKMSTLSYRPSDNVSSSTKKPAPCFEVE
Another series has as its target Beta-galactosidase (Escherichia coli, UniProt Q8VNN2). As to the kind of experiment: PubChem AID 485352. The format is functional.
For series [13], the target named is T2, Ubiquitin-conjugating enzyme E2 N (Homo sapiens, UniProt P61088).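 Note: Dose-response confirmation in a TR-FRET assay detecting UBC13-driven polyubiquitin chain formation, inhibition measured.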
T2 sequence (P61088 whole entry): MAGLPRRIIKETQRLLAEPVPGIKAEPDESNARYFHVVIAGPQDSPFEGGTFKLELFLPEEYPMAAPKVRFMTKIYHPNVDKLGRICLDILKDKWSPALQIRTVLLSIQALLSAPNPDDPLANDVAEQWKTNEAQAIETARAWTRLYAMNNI
It counts as functional.

Series [14] has as its system A-375. As to the kind of experiment: proliferation inhibition in MITF-low A375 cells – cell-based, cherry-pick samples, set 2, counter-screen for MITF modulator project, dose response (AID 540335). The format is functional. Particulars: Homo sapiens.
The nature of series [15]: viability loss in HepG2 hepatoma cells – cell-based, ATP luminescence, cherry-pick, activator set 2, cytotoxicity control, dose response (AID 1053143). It counts as functional.
Series [16] concerns the target T3, Heat shock factor protein 1 (Mus musculus, UniProt P38532).
T3 sequence (P38532 whole entry): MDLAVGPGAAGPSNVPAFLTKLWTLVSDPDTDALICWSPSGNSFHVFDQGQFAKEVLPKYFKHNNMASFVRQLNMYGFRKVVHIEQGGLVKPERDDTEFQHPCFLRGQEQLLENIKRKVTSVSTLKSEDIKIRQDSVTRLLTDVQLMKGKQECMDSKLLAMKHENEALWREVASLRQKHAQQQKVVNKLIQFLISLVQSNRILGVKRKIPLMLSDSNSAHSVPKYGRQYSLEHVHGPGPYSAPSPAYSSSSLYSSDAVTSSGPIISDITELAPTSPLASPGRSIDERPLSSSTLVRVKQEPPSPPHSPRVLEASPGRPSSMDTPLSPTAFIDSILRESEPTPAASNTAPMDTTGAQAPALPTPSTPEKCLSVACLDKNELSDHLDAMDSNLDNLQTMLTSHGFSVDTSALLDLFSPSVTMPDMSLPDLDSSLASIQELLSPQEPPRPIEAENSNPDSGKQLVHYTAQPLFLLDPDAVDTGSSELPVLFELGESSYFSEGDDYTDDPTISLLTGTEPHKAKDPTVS
In words: enhancement of HSF1-driven luciferase signal – cell-based, NIH3T3, luminescence, dose retest, confirmation (AID 435004).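 Note: stress induced by proteasome inhibitor MG132 added 30 min after compound; luciferase reporter driven by HSF1 response element in NIH3T3 cells; actives raise luminescence as potentiators of the MG132 stress response.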 The format is functional.

Another series concerns the target Cytochrome P450 3A4 (Homo sapiens, UniProt P08684).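 Note: CYP3A4 tested as one member of a cytochrome P450 panel screen.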
Series [17] can be described thus: IC50 of Artemis nuclease activity blockers – biochemical, fluorescence intensity, dose response (AID 720701).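 Note: Artemis endonuclease enzyme.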 It counts as functional.
A further series has as its target T4, Cytochrome P450 1A2 (Homo sapiens, UniProt P05177).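 Note: PubChem cytochrome P450 panel assay, CYP1A2 panel member.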
T4 sequence (P05177 whole entry): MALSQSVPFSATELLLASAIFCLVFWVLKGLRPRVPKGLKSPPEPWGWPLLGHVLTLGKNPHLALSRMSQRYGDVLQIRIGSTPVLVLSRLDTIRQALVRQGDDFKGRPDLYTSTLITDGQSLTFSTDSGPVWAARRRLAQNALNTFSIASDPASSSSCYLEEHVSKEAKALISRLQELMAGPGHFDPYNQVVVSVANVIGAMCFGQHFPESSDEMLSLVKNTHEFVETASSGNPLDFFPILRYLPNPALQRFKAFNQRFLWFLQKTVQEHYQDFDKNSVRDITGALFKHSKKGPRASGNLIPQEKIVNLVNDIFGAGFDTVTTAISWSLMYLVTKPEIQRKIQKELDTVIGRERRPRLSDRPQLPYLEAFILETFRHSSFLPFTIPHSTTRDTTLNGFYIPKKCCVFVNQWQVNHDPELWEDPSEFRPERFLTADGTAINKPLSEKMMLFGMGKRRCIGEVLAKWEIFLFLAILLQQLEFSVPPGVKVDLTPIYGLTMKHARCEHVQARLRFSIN

In the next series the test system is HEK293. As to the kind of experiment: cells. Particulars: Homo sapiens.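 Note: cells exposed to compound for 14 hours overnight before viability readout.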
Another series concerns the target Tumor necrosis factor (Homo sapiens, UniProt P01375). In words: analog potency on TNFa NF-kB signaling – cell-based, revised, SAR follow-up (AID 2337). The format is functional.
Series [18] concerns the target T5, Intestinal-type alkaline phosphatase (Homo sapiens, UniProt P09923). In words: human intestinal alkaline phosphatase activators, dose response, biochemical, luminescence, uHTS hits (AID 463120). It counts as functional.
The target in series [19] is T6, Alkaline phosphatase, tissue-nonspecific isozyme (Homo sapiens, UniProt P05186).
T6 sequence (P05186 whole entry): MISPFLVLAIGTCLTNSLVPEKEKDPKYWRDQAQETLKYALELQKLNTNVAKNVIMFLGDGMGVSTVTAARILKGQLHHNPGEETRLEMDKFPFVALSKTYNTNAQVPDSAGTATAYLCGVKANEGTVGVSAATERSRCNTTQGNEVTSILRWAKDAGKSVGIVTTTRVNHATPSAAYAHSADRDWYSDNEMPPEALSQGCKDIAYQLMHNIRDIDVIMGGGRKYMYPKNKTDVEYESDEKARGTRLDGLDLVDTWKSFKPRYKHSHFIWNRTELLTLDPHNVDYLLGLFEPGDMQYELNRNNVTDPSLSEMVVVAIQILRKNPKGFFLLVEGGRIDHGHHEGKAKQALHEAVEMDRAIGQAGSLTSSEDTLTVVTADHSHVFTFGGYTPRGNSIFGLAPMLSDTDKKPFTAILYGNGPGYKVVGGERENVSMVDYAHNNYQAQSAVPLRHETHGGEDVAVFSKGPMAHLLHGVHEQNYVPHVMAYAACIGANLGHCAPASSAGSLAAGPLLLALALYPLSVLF
In words: activation of tissue-nonspecific alkaline phosphatase – biochemical, TNAP isozyme, human IAP uHTS hits, selectivity assay for human IAP activator project, dose response (AID 488886).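 Note: potency of compounds raising TNAP activity as a selectivity check on IAP activators.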 The format is functional.

Series [20] addresses Intestinal-type alkaline phosphatase (Mus musculus, UniProt P24822). In words: PubChem AID 488874. The format is functional.
The target in series [21] is T5, Intestinal-type alkaline phosphatase. In words: activation of human intestinal alkaline phosphatase – biochemical, luminescent, uHTS hits, set 2, dose response (AID 488817).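 Note: potency of activators that raise enzyme activity.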 The format is functional.

The structures appear in SMILES notation. The source made the active and inactive calls.

T5 sequence (P09923 whole entry): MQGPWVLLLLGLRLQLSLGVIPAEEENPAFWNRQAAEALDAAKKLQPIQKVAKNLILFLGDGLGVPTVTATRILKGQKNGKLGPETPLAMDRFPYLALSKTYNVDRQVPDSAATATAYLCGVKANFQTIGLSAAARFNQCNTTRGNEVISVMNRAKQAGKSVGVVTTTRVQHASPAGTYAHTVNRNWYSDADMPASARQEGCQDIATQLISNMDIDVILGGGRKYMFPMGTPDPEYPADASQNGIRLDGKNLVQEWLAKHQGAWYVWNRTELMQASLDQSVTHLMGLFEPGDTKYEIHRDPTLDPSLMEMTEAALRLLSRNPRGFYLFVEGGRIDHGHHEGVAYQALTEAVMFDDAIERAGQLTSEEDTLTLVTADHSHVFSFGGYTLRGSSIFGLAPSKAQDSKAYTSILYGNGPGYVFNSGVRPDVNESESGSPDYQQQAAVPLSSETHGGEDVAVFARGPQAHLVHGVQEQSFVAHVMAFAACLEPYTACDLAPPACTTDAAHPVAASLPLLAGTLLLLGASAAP
Sequence of Beta-galactosidase (Q8VNN2 whole entry): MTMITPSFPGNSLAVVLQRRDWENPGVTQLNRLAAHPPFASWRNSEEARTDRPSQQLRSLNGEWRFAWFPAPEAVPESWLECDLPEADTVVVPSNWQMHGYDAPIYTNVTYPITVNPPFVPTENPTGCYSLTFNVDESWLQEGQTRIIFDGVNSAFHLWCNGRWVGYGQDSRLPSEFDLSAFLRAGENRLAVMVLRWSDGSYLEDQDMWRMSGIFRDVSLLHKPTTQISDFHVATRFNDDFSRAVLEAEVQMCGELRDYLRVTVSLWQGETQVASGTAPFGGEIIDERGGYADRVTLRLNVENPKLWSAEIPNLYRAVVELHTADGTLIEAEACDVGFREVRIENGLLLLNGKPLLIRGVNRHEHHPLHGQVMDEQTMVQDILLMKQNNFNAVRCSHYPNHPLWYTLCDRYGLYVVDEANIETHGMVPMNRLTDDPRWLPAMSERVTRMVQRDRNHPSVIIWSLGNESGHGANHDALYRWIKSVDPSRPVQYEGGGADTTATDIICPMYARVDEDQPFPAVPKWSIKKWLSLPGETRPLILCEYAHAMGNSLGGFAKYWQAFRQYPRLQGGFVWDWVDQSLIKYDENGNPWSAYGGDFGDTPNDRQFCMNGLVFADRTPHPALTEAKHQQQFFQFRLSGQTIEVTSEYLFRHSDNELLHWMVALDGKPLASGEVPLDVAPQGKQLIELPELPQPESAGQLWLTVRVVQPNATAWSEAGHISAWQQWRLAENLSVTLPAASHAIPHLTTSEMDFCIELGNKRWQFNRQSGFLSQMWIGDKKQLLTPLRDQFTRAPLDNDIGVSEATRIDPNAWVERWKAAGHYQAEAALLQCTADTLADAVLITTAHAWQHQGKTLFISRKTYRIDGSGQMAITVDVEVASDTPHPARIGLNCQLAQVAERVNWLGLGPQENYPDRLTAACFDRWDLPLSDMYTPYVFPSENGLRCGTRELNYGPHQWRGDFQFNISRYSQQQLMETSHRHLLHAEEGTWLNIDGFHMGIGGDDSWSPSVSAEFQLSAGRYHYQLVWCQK
Sequence of Tumor necrosis factor (P01375 whole entry): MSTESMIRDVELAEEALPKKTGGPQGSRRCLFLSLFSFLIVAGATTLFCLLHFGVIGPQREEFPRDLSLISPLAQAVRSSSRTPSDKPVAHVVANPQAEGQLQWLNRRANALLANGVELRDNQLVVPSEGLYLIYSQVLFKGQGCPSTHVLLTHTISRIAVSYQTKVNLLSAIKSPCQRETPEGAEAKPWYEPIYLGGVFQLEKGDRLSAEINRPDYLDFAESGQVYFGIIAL
Sequence of Intestinal-type alkaline phosphatase (Mus musculus, UniProt P24822) (P24822 whole entry): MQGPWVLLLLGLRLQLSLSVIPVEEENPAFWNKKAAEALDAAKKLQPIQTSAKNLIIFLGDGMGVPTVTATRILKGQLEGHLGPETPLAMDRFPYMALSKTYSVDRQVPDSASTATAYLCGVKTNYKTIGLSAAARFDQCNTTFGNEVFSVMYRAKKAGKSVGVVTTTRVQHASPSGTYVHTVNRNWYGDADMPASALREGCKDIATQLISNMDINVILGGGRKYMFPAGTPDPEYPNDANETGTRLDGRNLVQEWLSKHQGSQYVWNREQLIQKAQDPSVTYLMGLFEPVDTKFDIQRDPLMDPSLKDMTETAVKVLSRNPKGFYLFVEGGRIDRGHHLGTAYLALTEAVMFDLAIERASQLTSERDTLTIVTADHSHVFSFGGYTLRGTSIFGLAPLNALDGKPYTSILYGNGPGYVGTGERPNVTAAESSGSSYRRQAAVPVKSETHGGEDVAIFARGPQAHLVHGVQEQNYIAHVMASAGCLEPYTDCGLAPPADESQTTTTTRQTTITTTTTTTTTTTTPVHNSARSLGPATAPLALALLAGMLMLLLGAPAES
Sequence of Cytochrome P450 3A4 (P08684 whole entry): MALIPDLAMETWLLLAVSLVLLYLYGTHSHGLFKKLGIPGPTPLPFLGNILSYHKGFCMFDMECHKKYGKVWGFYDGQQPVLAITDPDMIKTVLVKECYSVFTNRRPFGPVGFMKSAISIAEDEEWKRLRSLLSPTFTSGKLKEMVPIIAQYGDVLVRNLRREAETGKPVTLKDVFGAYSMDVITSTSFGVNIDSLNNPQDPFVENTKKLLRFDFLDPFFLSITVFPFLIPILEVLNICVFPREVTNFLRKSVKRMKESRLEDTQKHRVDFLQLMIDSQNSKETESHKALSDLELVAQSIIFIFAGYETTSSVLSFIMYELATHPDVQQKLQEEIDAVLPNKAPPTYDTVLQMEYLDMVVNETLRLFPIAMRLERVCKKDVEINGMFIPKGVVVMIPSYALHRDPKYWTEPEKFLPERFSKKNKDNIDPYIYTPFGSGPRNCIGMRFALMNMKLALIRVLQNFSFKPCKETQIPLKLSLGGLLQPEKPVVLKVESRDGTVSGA

The IC50 is the midpoint of a concentration-inhibition curve. Usually EC50 stands for the concentration at which the effect is half-maximal. Usually AC50 stands for the concentration at which the activity in the assay is half-maximal. For orientation: CC50 means the concentration that lowers cell viability or growth by half. For the molecule `COc1cc(CNC2CCCC2)cc(Cl)c1OCc1ccccc1Cl`, the IC50 in “cells” is 16.8 µM (active). The EC50 is 1.17 µM (active) in series [1], 12.1 µM (active) in [2], 14.6 µM (active) in series [5] and 13.8 µM (active) in [6]. Also, the AC50 is 5.89 µM (active) in [3], 7.36 µM (active) in the series with INS1, 17.7 µM (active) in series [8] and 17.5 µM (active) with A-375 [9]. For the same molecule, the values for the CC50 in series [4], in series [7] and in series [10] were > 20 µM (active), 18.3 µM (active) and 19.1 µM (active), respectively.

For `Cc1ccc(C(=O)CNc2ccc(C)c(Cl)c2)cc1`, the values for the IC50 in series [11] and in series [12] were > 100 µM (active) and 5.43 µM (active), respectively. For the same molecule, the EC50 at Beta-galactosidase is > 40 µM (inactive).

With `COc1ccc(C[C@H]2CN3C(=NC[C@@H]3C(C)C)N2CCNC(=O)c2ccc(C)c(Br)c2)cc1`, the IC50 in [13] is > 20 µM (inactive). Further, the AC50 in the series with A-375 [14] was 34.3 µM (active).

Take `C#Cc1cccc(NC(=O)CSc2nnc(-c3ccc(C(F)(F)F)cn3)o2)c1`: the AC50 in the series with A-375 [9] and in the series on A-375 [14] was > 11 µM (active) in each case.

As to `CCOc1cccc(/C=C/c2ccc3cccc(O)c3n2)c1OC`, in series [12], the IC50 is 16.6 µM (active). Further, the EC50 in series [1] was 2.48 µM (active); on Beta-galactosidase, > 40 µM (inactive); in [6], 4.48 µM (active); in series [16], 27.7 µM (active). Also, the half-maximal activity concentration (AC50) in series [15] was 26 µM (active).

In the case of `CCN1CCc2nc(NC(=O)CC(c3ccccc3)c3ccccc3)sc2C1`, the AC50 entry was “inconclusive” at Cytochrome P450 3A4 and 15.8 µM (inconclusive) at Cytochrome P450 1A2. Further, in [17], the IC50 is 9.25 µM (active).

As to `CC(=O)c1ccc(N2CCN(S(=O)(=O)c3ccc4c(c3)CCN4C(C)=O)CC2)cc1`, the IC50 with HEK293 was > 20 µM (inactive); at Tumor necrosis factor, 13.2 µM (active).

Consider `Cc1ccc(S(=O)(=O)NCCC(=O)NNC(=O)COc2ccc(Br)cc2)cc1C`, for which the EC50 in series [18] is 11.5 µM (active); in series [19], 16.4 µM (active); in series [21] it was 16 µM (active). The IC50 in [20] was 89.4 µM (active).
